Test results taken from patent US4877796A (priority 1986, dated 1989).
Where two headings read alike, the source gives them in different places.

System: disturbances of the cardiac rhythm (aconitine) in the rat
Type: in vivo
Details: for Precentage of the protraction of time: aconitine perfusion five minutes after administration, compared with controls

**Q.** `CN1CCC[C@H]2CCC[C@@H](N(C)C(=O)Cc3ccc(Cl)c(Cl)c3)[C@@H]21` [Example 2, [4aRS(4aα,8α,8aα)](+) N-(decahydro-1-methyl-8-quinolinyl)-3,4-dichloro-N-methyl-benzene-acetamide] was tested. Which “Precentage of the protraction of time” value (2.5 mg/kg intravenously) did it give?
**A.** Its value is 16%.

**Q.** What about the “Precentage of the protraction of time” value (5 mg/kg intravenously) of the same compound?
**A.** Its value is 28%.

**Q.** And the “Precentage of the protraction of time” value (10 mg/kg intravenously)?
**A.** The value was 43%.

**Q.** And the “antiarrythmic properties (in words)” value (intravenously, aconitine model)?
**A.** The value was “good antiarrythmic properties”.
